In brackets after ≈: the same amount, converted by molar mass. Read-outs that look alike come from different tables or passages of the source. No end group written: not given here.
How the values were obtained:
[1] = system: SP 4013; assay: organism not typed
Description: (§1) All the strains (see below) used in minimal inhibitory concentration (MIC) assays (Ovchinnikov et al., 2017, Front Microbiol., 8, p774, doi:10.3389/fmicb.2017.00774) were grown in BHI medium (Oxoid) at 30° C. without shaking. The tested strains were obtained from the LMG collection. […] NisinZ and micrococcin P1 were purified from source. Synthesized peptides were solubilized to concentrations of 10.0-0.1 mg/ml in 0.1% (vol/vol) trifluoroacetic acid and stored at −20° C. until use. Garvicin KS is made up of 3 peptides:
(§2) Bacteriocin activity was determined using a microtitre plate assay. The plates were incubated at 30° C. for 8 h and the growth was measured spectrophotometrically at 600 nm (A600) with 15 min intervals using SPECTROstarNano (BMG LABTECH, Germany). The MIC was defined as the bacteriocin concentration that inhibited the growth of the indicator strain by at least 50% in 200 μl culture (i.e., 50% of the turbidity of the control culture without bacteriocin).

[2] = system: SP 4014; assay: organism not typed
Description: as §1, §2

[3] = system: SP 4012; assay: organism not typed
Description: as §1, §2

[4] = system: Sa3323; assay: microbe, parasite or virus in culture
Description: as §1, §2

[5] = system: Sa ATCC 33591; assay: microbe, parasite or virus in culture
Description: as §1, §2

[6] = system: Sa 3328; assay: microbe, parasite or virus in culture
Description: as §1, §2

[7] = system: Sa 3242; assay: microbe, parasite or virus in culture
Description: as §1, §2

[8] = system: Sa3324; assay: microbe, parasite or virus in culture
Description: as §1, §2

[9] = system: SH 4015; assay: microbe, parasite or virus in culture
Description: as §1, §2

[10] = system: SH 4016; assay: microbe, parasite or virus in culture
Description: as §1, §2

[11] = system: KAVA; assay: MIC microtitre plate assay, pathogenic isolates; type: cell-based
Description: The tested strains were obtained from the LMG collection. […] NisinZ and micrococcin P1 were purified from source. […] Garvicin KS is made up of 3 peptides:
Bacteriocin activity was determined using a microtitre plate assay. The plates were incubated at 30° C. for 8 h and the growth was measured spectrophotometrically at 600 nm (A600) with 15 min intervals using SPECTROstarNano (BMG LABTECH, Germany).

[12] = system: E. faecium (2)
Description: as §1, §2

[13] = system: E. hirae (4)
Description: as §1, §2

[14] = system: E. faecalis (2); conditions: 2
Description: as §1, §2

[15] = system: S. pseudointermedius (3)
Description: as §1, §2

[16] = system: Listeria spp. (3)
Description: as §1, §2

[17] = system: EntEJ97/EntK1 resistant mutants of E. faecalis and E. faecium; assay: Challenge of EntEJ97/EntK1 resistant mutants with non-related bacteriocins; type: cell-based; conditions: all HR and LR mutants, compared to WT
Description: To analyze whether this active site is important for bacteriocin sensitivity, we changed the invariant residues in this motif —H18-E19-F20-G21-H22—one by one and altogether in the enterococcal RseP (invariant residues underlined) to alanine and then assessed for bacteriocin sensitivity.

| Molecule | MIC [1] [µg/mL] | MIC [2] [µg/mL] | MIC [3] [µg/mL] | MIC [13] [µg/mL] | MIC [14] [µg/mL] | MIC [15] [µg/mL] | MIC [4] [µg/mL] | MIC ([5]; ATCC 33591) [µg/mL] | MIC [6] [µg/mL] | MIC [7] [µg/mL] | MIC [8] [µg/mL] | MIC [9] [µg/mL] | MIC [10] [µg/mL] | MIC ([11]; KAVA) [µg/mL] | further results |
| --- | --- | --- | --- | --- | --- | --- | --- | --- | --- | --- | --- | --- | --- | --- | --- |
| C=C(NC(=O)[C@@H](NC(=O)[C@H](Cc1c[nH]cn1)NC(=O)[C@@H](NC(=O)[C@H](CO)NC(=O)[C@@H]1CS[C@@H](C)[C@H]2NC(=O)[C@H](C)NC(=O)[C@H](NC(=O)[C@H](CCCCN)NC(=O)[C@H](CCSC)NC(=O)[C@H](CC(N)=O)NC(=O)[C@@H]3CS[C@@H](C)[C@@H](NC(=O)[C@H](CCCCN)NC(=O)[C@@H]4CS[C@@H](C)[C@@H](NC(=O)[C@@H]5CSC[C@@H](NC(=O)/C(=C/C)NC(=O)[C@@H](N)[C@@H](C)CC)C(=O)N[C@@H]([C@@H](C)CC)C(=O)NC(=C)C(=O)N[C@@H](CC(C)C)C(=O)N5)C(=O)N5CCC[C@H]5C(=O)NCC(=O)N4)C(=O)NCC(=O)N[C@@H](C)C(=O)N[C@@H](CC(C)C)C(=O)N[C@@H](CCSC)C(=O)NCC(=O)N3)[C@H](C)SC[C@H](NC2=O)C(=O)N[C@@H](CC(N)=O)C(=O)N1)[C@@H](C)CC)C(C)C)C(=O)N[C@@H](CCCCN)C(=O)O [NisinZ, reference compound] |  |  |  |  |  |  |  |  |  |  |  |  |  |  | MIC ([1]; SP 4013 (S. pseudointermedius)): 0.4 µg/mL (≈ 0.12 µM); MIC ([2]; SP 4014 (S. pseudointermedius)): 0.4 µg/mL (≈ 0.12 µM); MIC ([3]; SP 4012 (S. pseudointermedius)): 0.4 µg/mL (≈ 0.12 µM); MIC ([4]; Sa3323 (S. aureus)): 6.25 µg/mL (≈ 1.88 µM); MIC ([5]; Sa ATCC 33591 (S. aureus)): 0.8 µg/mL (≈ 0.24 µM); MIC ([6]; Sa 3328 (S. aureus)): 0.8 µg/mL (≈ 0.24 µM); MIC ([7]; Sa 3242 (S. aureus)): 3.1 µg/mL (≈ 0.931 µM); MIC ([8]; Sa3324 (S. aureus)): 1.6 µg/mL (≈ 0.48 µM); MIC ([9]; SH 4015 (S. haemolyticus)): 1.6 to 3.1 µg/mL; MIC ([10]; SH 4016 (S. haemolyticus)): 1.6 to 3.1 µg/mL |
| C/C=C(\NC(=O)c1csc(-c2csc(-c3ccc4c(n3)-c3csc(n3)[C@H]([C@@H](C)O)NC(=O)c3csc(n3)[C@H](C(C)C)NC(=O)c3csc(n3)/C(=C/C)NC(=O)[C@H]([C@@H](C)O)NC(=O)c3csc-4n3)n2)n1)C(=O)NC[C@@H](C)O [micrococcinP1, Micrococcin P1, reference compound] | 0.4 (≈ 0.35 µM) | 0.8 (≈ 0.699 µM) | 0.4 (≈ 0.35 µM) |  |  |  |  |  |  |  |  |  |  |  | MIC ([4]; Staphylococcus aureus): 0.1 µg/mL (≈ 0.0874 µM); MIC ([5]; Staphylococcus aureus, ATCC33591): 0.4 µg/mL (≈ 0.35 µM); MIC ([6]; Staphylococcus aureus, 3328): 0.1 µg/mL (≈ 0.0874 µM); MIC ([7]; Staphylococcus aureus, 3242): 0.2 µg/mL (≈ 0.175 µM); MIC ([8]; Staphylococcus aureus): 0.1 µg/mL (≈ 0.0874 µM); MIC ([9]; Staphylococcus haemolyticus): 1.6 µg/mL (≈ 1.4 µM); MIC ([10]; Staphylococcus haemolyticus): 1.6 µg/mL (≈ 1.4 µM); MIC [11]: > 12.5 µg/mL |
| MIKKFPNPYTLAAKLTTYEINWYKQQYGRYPWERPVA [EntEJ97short] | 3.1 | 1.6 to 3.1 | 3.1 | 0.1 to 0.4 | 1.6 | 1.6 to 31 | 3.1 to 6.25 | >50 | 3.1 | 12.5 | 6.25 | 1.6 to 3.1 | 1.6 to 3.1 | >50 | MIC [12]; 2: 12.5 to 25 µg/mL; MIC [16]: >50 µg/mL |
| MKFKFNPTGTIVKKLTQYEINWYKQQYGRYPWERPVA [K1-EJ hybrid] | 12.5 | 12.5 | 25 | 0.1 to 0.4 | 1.6 to 3.1 | 12.5 to 25 | 3.2 to 6.25 | >50 | 3.1 | 3.1 | 6.25 | 0.8 | 0.8 to 1.6 | >50 | MIC ([12]; E. faecium (2), Table 6B): <0.05 to 0.4 µg/mL; MIC [16]: 6.25 to 25 µg/mL |
| MLAKIKAMIKKFPNPYTLAAKLTTYEIAWFKNKHGYYPWEIPRC [EJ-K1 hybrid] | >50 | >50 | >50 | 3.2 to 6.3 | 25 to 50 | 50 | 3.2 to 6.25 | >50 | 6.25 | 12.5 | 12.5 | 50 | 50 | >50 | MIC [12]; 2: 3.15 µg/mL |
| garvicin ML |  |  |  |  |  |  |  |  |  |  |  |  |  |  | sensitivity of EntEJ97/EntK1 resistant mutants to non-related bacteriocin [17]: as sensitive as the WT strains |
| GarKS: Garvicin KS is made up of 3 peptides (SEQ ID NO:43, 44, 45) (peptide, listed as Lactococcus garvieae) chain 1: MGAIIKAGAKIVGKGVLGGGASWLGWNVGEKIWK chain 2: MGAIIKAGAKIIGKGLLGGAAGGATYGGLKKIFG chain 3: MGAIIKAGAKIVGKGALTGGGVWLAEKLFGGK |  |  |  |  |  |  |  |  |  |  |  |  |  | 6.25 to 12.5 | MIC ([1]; SP 4013 (S. pseudointermedius)): 6.25 µg/mL; MIC ([2]; SP 4014 (S. pseudointermedius)): 6.25 µg/mL; MIC ([3]; SP 4012 (S. pseudointermedius)): 6.25 µg/mL; MIC ([4]; Sa3323 (S. aureus)): 6.25 µg/mL; MIC ([5]; Sa ATCC 33591 (S. aureus)): 12.5 µg/mL; MIC ([6]; Sa 3328 (S. aureus)): 3.1 µg/mL; MIC ([7]; Sa 3242 (S. aureus)): 3.1 µg/mL; MIC ([8]; Sa3324 (S. aureus)): 6.25 µg/mL; MIC ([9]; SH 4015 (S. haemolyticus)): 6.25 µg/mL; MIC ([10]; SH 4016 (S. haemolyticus)): 6.25 µg/mL |

Source: patent publication US11648289B2, “Antibacterial method” (priority 2016, dated 2023)
